{
  "source": "patent US6462023B1",
  "about": "“Cytostatic agents” (British Biotech Pharmaceuticals, Ltd., priority 1988, dated 2002)",
  "key": {"[1]": {"tested_on": "histiocytic lymphoma (U937)", "assay": "cell proliferation assay ([methyl-3H] thymidine incorporation), U937", "format": "cell-based, human", "conditions": "Homo sapiens, U-937, 72 hours in culture, n=6, read-out: U937: percentage of control 3[H] Thymidine incorporation", "experimental": "(§1) Two human cell lines namely a histiocytic lymphoma (U937) and a melanoma (RPMI-7951) were seeded into 30 mm^2 tissue culture wells, in the appropriate culture medium supplemented with 10% fetal calf serum at a density of 250 cells/mm^2. Six hours later the test compounds were added in the same culture medium to the cells to give a final concentration of 6 μM. Control wells contained cells supplemented with the same culture medium containing the equivalent amount of drug vehicle, which in this case was DMSO at a final concentration of 0.08%. After 72 hours in culture the cells were pulsed for 3 hours with [methyl-^3[H] Thymidine] (2 μCi/ml) and then harvested onto filter mats and DNA associated radioactivity counted. Results are expressed as percentage of control ^3[H] Thymidine incorporation (n=6±1 stdv).\nFurther examples were tested in the U937 assay described above at 6 μM and the results, expressed as percentage of control ^3[H] Thymidine incorporation (n=6±1 stdv), are set out in the following Table 2.\nas §1, with “A” for “Two”, “line,” for “lines”, “(U937), was” for “(U937) and a melanoma (RPMI-7951) were”, “30MM^2” for “30 mm^2”, “cellS/MM^2.” for “cells/mm^2.”, “were” for “are”"}, "melanoma (RPMI-7951)": {"tested_on": "melanoma (RPMI-7951)", "assay": "cell proliferation assay ([methyl-3H] thymidine incorporation), RPMI-7951", "format": "cell-based, human", "conditions": "Table 1; final concentration 6 μM; 72 hours in culture, 3 hours pulse; n=6", "experimental": "as §1"}, "[2]": {"conditions": "Table 1, final concentration 6 μM, 3 hours pulse"}},
  "note": "Read-outs that look alike come from different tables or passages of the source.",
  "data": [
    {"smiles": "C=CC[C@H](C(=O)NO)[C@@H](CC(C)C)C(=O)N[C@@H](Cc1ccccc1)C(=O)OC(C)C", "note": "[Example 3, 2S-(3S-Hydroxycarbamoyl-2R-isobutyl-hex-5-enoylamino)-3-phenylpropionic acid isopropyl ester]", "values": [
      {"measurement": "activity at 6 µM", "setting": "[1]; [2]", "value": 2.5, "unit": "%"},
      {"measurement": "RPMI: percentage of control 3[H] Thymidine incorporation", "setting": "melanoma (RPMI-7951)", "value": "27 percentage of control"}
    ]},
    {"smiles": "C=CC[C@H](C(=O)NO)[C@@H](CC(C)C)C(=O)N[C@@H](Cc1ccccc1)C(=O)OCC", "note": "[Example 2, 2S-(3S-Hydroxycarbamoyl-2R-isobutyl-hex-5-enoylamino)-3-phenylpropionic acid ethyl ester]", "values": [
      {"measurement": "activity at 6 µM", "setting": "[1]; [2]", "value": 7, "unit": "%"},
      {"measurement": "RPMI: percentage of control 3[H] Thymidine incorporation", "setting": "melanoma (RPMI-7951)", "value": "37 percentage of control"}
    ]},
    {"smiles": "COC(=O)[C@H](Cc1ccccc1)NC(=O)[C@H](CC(C)C)[C@H](C)C(=O)NO", "note": "[Example 5, 3R-(2-Phenyl-1S-methylcarboxy-ethylcarbamoyl)-2S, 5-dimethylhexanohydroxamic acid]", "values": [
      {"measurement": "activity at 6 µM", "setting": "[1]; [2]", "value": 19, "unit": "%"},
      {"measurement": "RPMI: percentage of control 3[H] Thymidine incorporation", "setting": "melanoma (RPMI-7951)", "value": "82 percentage of control"}
    ]},
    {"smiles": "C=CC[C@H](C(=O)NO)[C@@H](CC(C)C)C(=O)N[C@@H](Cc1ccccc1)C(=O)OC(CC)CC", "note": "[Example 30, 2S-(3S-Hydroxycarbamoyl-2R-isobutyl-hex-5-enoylamino)-3-phenylpropionic acid 1-ethyl-propyl ester]", "values": [
      {"measurement": "activity at 6 µM", "setting": "[1]; Table 2, 6 μM", "value": 6, "unit": "%"}
    ]},
    {"smiles": "C=CC[C@H](C(=O)NO)[C@@H](CC(C)C)C(=O)N[C@@H](Cc1ccccc1)C(=O)O[C@H](C)CCC", "note": "[Example 34, 2S-(3S-Hydroxycarbamoyl-2R-isobutyl-hex-5-enoylamino)-3-phenylpropionic acid 1R-methyl-butyl ester]", "values": [
      {"measurement": "activity at 6 µM", "setting": "[1]; Table 2, 6 μM", "value": 3, "unit": "%"}
    ]},
    {"smiles": "CC(C)C[C@@H](C(=O)N[C@@H](Cc1ccccc1)C(=O)OC1CCCC1)[C@H](O)C(=O)NO", "note": "[Example 11, 2S-[2R-(S-Hydroxy-hydroxycarbamoyl-methyl)-4-methyl-pentanoylamino]-3-phenyl-propionic acid cyclopentyl ester]", "values": [
      {"measurement": "activity at 6 µM", "setting": "[1]; Table 2, 6 μM", "value": 0, "unit": "%"}
    ]},
    {"smiles": "C=CC[C@H](C(=O)NO)[C@@H](CC(C)C)C(=O)N[C@H](C(=O)OC1CCCC1)c1ccccc1", "note": "[Example 41, 2S-(3S-Hydroxycarbamoyl-2R-isobutyl-hex-5-enoylamino)-2-phenylethanoic acid cylcopentyl ester]", "values": [
      {"measurement": "activity at 6 µM", "setting": "[1]; Table 2, 6 μM", "value": 0, "unit": "%"}
    ]},
    {"smiles": "CO[C@H](C(=O)NO)[C@@H](CC(C)C)C(=O)N[C@H](C(=O)OC(C)C)C(C)(C)C", "note": "[Example 24, 2S-[2R-(S-Hydroxycarbamoyl-methoxy-methyl)-4-methyl-pentanoylamino]-3,3-dimethyl-butyric acid isopropyl ester]", "values": [
      {"measurement": "activity at 6 µM", "setting": "[1]; Table 2, 6 μM", "value": 50, "unit": "%"}
    ]},
    {"smiles": "C=CC[C@H](C(=O)NO)[C@@H](CC(C)C)C(=O)N[C@@H](CC1CCCCC1)C(=O)OC1CCCC1", "note": "[Example 28, 3-Cyclohexyl-2S-(3S-hydroxycarbamoyl-2R-isobutyl-hex-5-enoylamino)-propionic acid cyclopentyl ester]", "values": [
      {"measurement": "activity at 6 µM", "setting": "[1]; Table 2, 6 μM", "value": 0, "unit": "%"}
    ]},
    {"smiles": "COCCOC(=O)[C@@H](Cc1ccccc1)NC(=O)[C@H](CC(C)C)[C@H](C)C(=O)NO", "note": "[Example 14, 2S-[2R-(1S-Hydroxycarbamoyl-ethyl)-4-methyl-pentanoylamino]-3-phenyl-propionic acid 2-methoxy-ethyl ester]", "values": [
      {"measurement": "activity at 6 µM", "setting": "[1]; Table 2, 6 μM", "value": 33, "unit": "%"}
    ]},
    {"smiles": "C=CC[C@H](C(=O)NO)[C@@H](CC(C)C)C(=O)N[C@@H](Cc1ccccc1)C(=O)OC", "note": "[Example 1, 2S-(3S-Hydroxycarbamoyl-2R-isobutyl-hex-5-enoylamino)-3-phenylpropionic acid methyl ester]", "values": [
      {"measurement": "activity at 6 µM", "setting": "[1]; [2]", "value": 7, "unit": "%"},
      {"measurement": "RPMI: percentage of control 3[H] Thymidine incorporation", "setting": "melanoma (RPMI-7951)", "value": "40 percentage of control"}
    ]},
    {"smiles": "CC(C)C[C@@H](C(=O)N[C@@H](Cc1ccccc1)C(=O)OC(C)C)[C@H](C)C(=O)NO", "note": "[Example 9, 2S-[2R-(1S-Hydroxycarbamoyl-ethyl)-4-methyl-pentanoylamino]-3-phenyl-propionic acid isopropyl ester]", "values": [
      {"measurement": "activity at 6 µM", "setting": "[1]; Table 2, 6 μM", "value": 8, "unit": "%"}
    ]},
    {"smiles": "C=CC[C@H](C(=O)NO)[C@@H](CC(C)C)C(=O)N[C@H](C(=O)OC1CCCC1)C(C)(C)C", "note": "[Example 36, 2S-(3S-Hydroxycarbamoyl-2R-isobutyl-hex-5-enoylamino)-3,3-dimethyl-butyric acid cyclopentyl ester]", "values": [
      {"measurement": "activity at 6 µM", "setting": "[1]; Table 2, 6 μM", "value": 51, "unit": "%"}
    ]}
  ]
}
